Laboratory results published in ChEMBL document CHEMBL3046593, “Studies on the synthesis of some new substituted benzylamino and phenyl-acrylamido-methyl flavone derivatives” (2007).
The source made the active and inactive calls. The calls are words filed in the database; no cut-off is given here.

Tests used:
Type in all cases: functional
Details in all cases: for zone of inhibition at 3000 µg/mL: read-out: DIZ
[1] = tested on: Candida albicans; experiment: Antifungal activity against Candida albicans RSKK 628 at 3000 ug/ml after 18 to 24 hr by disk diffusion method
[2] = tested on: Escherichia coli; experiment: Antibacterial activity against Escherichia coli RSKK 313 at 3000 ug/ml after 18 to 24 hr by disk diffusion method
[3] = tested on: Staphylococcus aureus; experiment: Antibacterial activity against Staphylococcus aureus ATCC 250 at 3000 ug/ml after 18 to 24 hr by disk diffusion method

| SMILES | zone of inhibition at 3000 µg/mL [1] | zone of inhibition at 3000 µg/mL [2] | zone of inhibition at 3000 µg/mL [3] | diameter of the inhibition zone (DIZ) [2] | diameter of the inhibition zone (DIZ) [1] | diameter of the inhibition zone (DIZ) [3] |
| --- | --- | --- | --- | --- | --- | --- |
| O=c1cc(-c2cccc(CNCc3ccc(Cl)c(Cl)c3)c2)oc2ccccc12 | 10 mm | 12 mm | 16 mm |  |  |  |
| O=c1cc(-c2cccc(CNCc3ccc(Cl)cc3)c2)oc2ccccc12 | 15 mm |  | 25 mm | inactive |  |  |
| O=C(/C=C/c1ccccc1)N(Cc1ccc(F)cc1)Cc1cccc(-c2cc(=O)c3ccccc3o2)c1 |  |  |  | inactive | inactive | inactive |
| O=c1cc(-c2cccc(CNCc3ccc(F)cc3)c2)oc2ccccc12 | 20 mm |  | 15 mm | inactive |  |  |
| O=C(/C=C/c1ccccc1)N(Cc1ccccc1)Cc1cccc(-c2cc(=O)c3ccccc3o2)c1 |  |  | 10 mm | inactive | inactive |  |
| Clc1ccc(COC(Cn2ccnc2)c2ccc(Cl)cc2Cl)c(Cl)c1 (stereo not drawn) [MICONAZOLE] | 35 mm |  |  |  |  |  |
| O=C(/C=C/c1ccccc1)N(Cc1ccc(Cl)cc1)Cc1cccc(-c2cc(=O)c3ccccc3o2)c1 | 13 mm | 12 mm |  |  |  | inactive |
| O=C(/C=C/c1ccccc1)N(Cc1cccc(-c2cc(=O)c3ccccc3o2)c1)Cc1ccc(Cl)c(Cl)c1 | 15 mm |  |  | inactive |  | inactive |
| O=c1cc(-c2cccc(CNCc3ccc(Cl)cc3Cl)c2)oc2ccccc12 |  |  | 10 mm | inactive | inactive |  |
| CC1(C)S[C@@H]2[C@H](NC(=O)[C@H](N)c3ccccc3)C(=O)N2[C@H]1C(=O)O [AMPICILLIN] |  | 20 mm | 30 mm |  |  |  |
| O=c1cc(-c2cccc(CNCc3ccccc3)c2)oc2ccccc12 | 25 mm | 10 mm | 16 mm |  |  |  |
| O=C(/C=C/c1ccccc1)N(Cc1cccc(-c2cc(=O)c3ccccc3o2)c1)Cc1ccc(Cl)cc1Cl | 15 mm |  |  | inactive |  | inactive |
